Reference: patent publication US12421270B2, “Oligosaccharide, preparation method therefor, composition thereof and use thereof” (YANTAI DONGCHENG BIOCHEMICALS CO., LTD, priority 2018, dated 2025)

Columns and labels:
Assay type in all cases: biochemical
[1] = test system: platelet-poor plasma; test: PT assay (prothrombin time), anticoagulant activity test; settings: 37° C., fibrin formation time
Experimental: (§1) Oligosaccharide compounds of the present application, J1 (a compound of formula J, in which Y=Na, q=1, R is azido, and ? is in β configuration), J2 (a compound of formula J, in which Y=Na, q=2, R is azido, and ? is in β configuration), J3 (a compound of formula J, in which Y=Na, q=3, R is azido, and ? is in β configuration), and J4 (a compound of formula J, in which Y=Na, q=4, R is azido, and ? is in β configuration) were assayed for anticoagulant activity, including activated partial thrombin time (APTT), prothrombin time (PT) and thrombin time (TT).
(§2) The whole experiment was carried out according to the instruction of the PT kit. Firstly, 20 ul of platelet-poor plasma and 5 ul of the solution to be tested (control or sample solution) were mixed into a test cup and incubated in preheating zone at 37° C. for 3 min. Then the test cup was moved to the test zone, and 50 ul of preheated PT reagent was added (preheating time is longer than 10 min, but not more than 30 min). At the same time, recording of fibrin formation time was immediately initiated, and when the experiment was completed, the fibrin formation time was read from the coagulation analyzer.
(§3) Results of the assays are as follows (data in the table represent the concentration required to double APTT/PT/TT): […]

[2] = test system: platelet-poor plasma; test: APTT assay (activated partial thrombin time), anticoagulant activity test; settings: 37° C., fibrin formation time
Experimental: as §1
The whole experiment was carried out according to the instruction of the APTT kit. Firstly, 20 ul of platelet-poor plasma and 5 ul of the solution to be tested (control or sample solution) were mixed into a test cup and incubated in preheating zone at 37° C. for 3 min. Then 25 ul of APTT reagent was added to the mixed system, and then continued to incubate at 37° C. for 3 min. Next, the test cup was moved to the test zone, and 25 ul of calcium chloride solution preheated for 5 min was added. At the same time, recording of fibrin formation time was immediately initiated, and when the experiment was completed, the fibrin formation time was read from the coagulation analyzer.
as §3

[3] = test system: platelet-poor plasma; test: TT assay (thrombin time), anticoagulant activity test; settings: 37° C., fibrin formation time, last column of table
Experimental: as §1
as §2, with “TT” for “PT”
as §3

## azido{(2,4-di-O-sulfo-α-L-fucosyl)-(1→3)-(β-D-glucopyranosyluronic acid)-(1→3)-(4,6-di-O-sulfo-2-deoxy-2-N-acetamino-β-D-galactopyranosyl)-(1→4)-[(2,4-di-O-sulfo-α-L-fucosyl)-(1→3)-(β-D-glucopyranosyluronic acid)-(1→3)-(4,6-di-O-sulfo-2-deoxy-2-N-acetamido-β-D-galactopyranosyl)]} decasodium salt [Compound J1]
[1]
  PT (concentration required to double PT): >128 µg/mL
[2]
  APTT (concentration required to double APTT): 120.39 µg/mL
[3]
  Concentration required to double TT: >128 µg/mL
